# Laboratory results as given in ChEMBL document CHEMBL1201862, “PubChem BioAssay data set” (2004).
#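 Results reflect a 48-hour exposure of cells in 96-well plates to compound at five concentrations. At the GI50, growth is halved.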 Activity calls are given as the source filed them. No stated cut-off is given here; in the data, active = GI50 up to about 1.1 µM and inactive = higher. Peptide text beside a SMILES is read from it. * marks the point of attachment. Cbz = O=C(OCc1ccccc1)*; NHNH2 = NN*
# Assays:
# Experiment in all cases: inhibition of tumour cell growth, NCI panel, 48 h
# SNB-75 = system: SNB-75
# UO-31 = system: UO-31
# M14 = system: M14
# PC-3 = system: PC-3
# SK-MEL-2 = system: SK-MEL-2
# HCC 2998 = system: HCC 2998
# NCI-H460 = system: NCI-H460
# MDA-MB-231 = system: MDA-MB-231
# SN12C = system: SN12C
# UACC-62 = system: UACC-62
# K562 = system: K562
# 786-0 = system: 786-0
# Hs-578T = system: Hs-578T
# HOP-92 = system: HOP-92
# SK-MEL-28 = system: SK-MEL-28
# UACC-257 = system: UACC-257
# ACHN = system: ACHN
# HCT-116 = system: HCT-116
# SF-295 = system: SF-295
# HOP-62 = system: HOP-62
# SF-539 = system: SF-539
# MCF7 = system: MCF7
# IGROV-1 = system: IGROV-1
# RPMI-8226 = system: RPMI-8226
# MDA-N = system: MDA-N
# KM12 = system: KM12
# MDA-MB-435 = system: MDA-MB-435
# OVCAR-4 = system: OVCAR-4
# HL-60 = system: HL-60
# SNB-19 = system: SNB-19
# CCRF-CEM = system: CCRF-CEM
# TK-10 = system: TK-10
# T47D = system: T47D
# SK-MEL-5 = system: SK-MEL-5
# OVCAR-5 = system: OVCAR-5
# HT-29 = system: HT-29
# SR = system: SR
# COLO 205 = system: COLO 205
# SK-OV-3 = system: SK-OV-3
# SF-268 = system: SF-268
# OVCAR-8 = system: OVCAR-8
# SW-620 = system: SW-620
# U-251 = system: U-251
# MOLT-4 = system: MOLT-4
# LOX IMVI = system: LOX IMVI
# BT-549 = system: BT-549
# HCT-15 = system: HCT-15
smiles,measurement,setting,value
COC(=O)CC(NC(=O)OCc1ccccc1)C(=O)NC(CC(=O)OC)C(=O)NC(CC(=O)OC)C(=O)NC(CC(=O)OC)C(=O)NC(CC(=O)OC)C(=O)NC(CC(=O)OC)C(=O)NN (configuration not stated) (Cbz-D(OMe)D(OMe)D(OMe)D(OMe)D(OMe)D(OMe)-NHNH2; configuration not given here),GI50,SNB-75,> 100 µM (inactive)
same,GI50,UO-31,> 100 µM (inactive)
same,GI50,M14,> 100 µM (inactive)
same,GI50,PC-3,> 100 µM (inactive)
same,GI50,SK-MEL-2,> 100 µM (inactive)
same,GI50,HCC 2998,> 100 µM (inactive)
same,GI50,NCI-H460,> 100 µM (inactive)
same,GI50,MDA-MB-231,> 100 µM (inactive)
same,GI50,SN12C,> 100 µM (inactive)
same,GI50,UACC-62,> 100 µM (inactive)
same,GI50,K562,> 100 µM (inactive)
same,GI50,786-0,> 100 µM (inactive)
same,GI50,Hs-578T,> 100 µM (inactive)
same,GI50,HOP-92,> 100 µM (inactive)
same,GI50,SK-MEL-28,> 100 µM (inactive)
same,GI50,UACC-257,> 100 µM (inactive)
same,GI50,ACHN,> 100 µM (inactive)
same,GI50,HCT-116,> 100 µM (inactive)
same,GI50,SF-295,> 100 µM (inactive)
same,GI50,HOP-62,> 100 µM (inactive)
same,GI50,SF-539,> 100 µM (inactive)
same,GI50,MCF7,> 100 µM (inactive)
same,GI50,IGROV-1,> 100 µM (inactive)
same,GI50,RPMI-8226,> 100 µM (inactive)
same,GI50,MDA-N,> 100 µM (inactive)
same,GI50,KM12,> 100 µM (inactive)
same,GI50,MDA-MB-435,> 100 µM (inactive)
same,GI50,OVCAR-4,> 100 µM (inactive)
same,GI50,HL-60,> 100 µM (inactive)
same,GI50,SNB-19,> 100 µM (inactive)
same,GI50,CCRF-CEM,> 100 µM (inactive)
same,GI50,TK-10,> 100 µM (inactive)
same,GI50,T47D,> 100 µM (inactive)
same,GI50,SK-MEL-5,> 100 µM (inactive)
same,GI50,OVCAR-5,> 100 µM (inactive)
same,GI50,HT-29,> 100 µM (inactive)
same,GI50,SR,> 100 µM (inactive)
same,GI50,COLO 205,> 100 µM (inactive)
same,GI50,SK-OV-3,> 100 µM (inactive)
same,GI50,SF-268,> 100 µM (inactive)
same,GI50,OVCAR-8,> 100 µM (inactive)
same,GI50,SW-620,> 100 µM (inactive)
same,GI50,U-251,> 100 µM (inactive)
same,GI50,MOLT-4,> 100 µM (inactive)
same,GI50,LOX IMVI,> 100 µM (inactive)
same,GI50,BT-549,> 100 µM (inactive)
same,GI50,HCT-15,> 100 µM
